Laboratory results reported in PubChem BioAssay AID1996.
Values after ≈ are worked out from the molar mass of the structure shown.

Conditions: buffer; pH 7.4; 200.0 µM

Row | SMILES | solubility kinetic
1 | CSc1nc2ccccc2c(=O)n1Cc1ccc(F)cc1 | < 0.3 µg/mL
2 | CC1CCC2(CC1)NC(=O)N(CC(=O)N1CCOCC1)C2=O (centres undefined) | > 46.4 µg/mL
3 | COc1cnc(-c2cccc(C(F)(F)F)c2)nc1OC | < 0.3 µg/mL
4 | Cc1ccccc1C(=O)NNC(=O)c1ccc2nc[nH]c2c1 | > 44.1 µg/mL
5 | COc1ccc(C)cc1N(CC(=O)N1CCCCCC1)S(C)(=O)=O | 38.1 µg/mL (≈ 107 µM)
6 | COc1cc2c(cc1OC)CN(C(=O)c1cc(Cl)nc(Cl)c1)CC2 | 27 µg/mL (≈ 73.5 µM)
7 | Cc1onc(-c2ccccc2)c1C(=O)/C=C/N(C)C | 36.4 µg/mL (≈ 142 µM)
8 | CC1(C)CC(=O)C(C(O)c2cccc([N+](=O)[O-])c2)C(C)(C)N1 (centres undefined) | 44.9 µg/mL (≈ 147 µM)
9 | CC(C(=O)Nc1cccc(C#N)c1)N(C)CCOc1ccccc1 (centres undefined) | 31.8 µg/mL (≈ 98.3 µM)
10 | CC1(c2ccccc2)NC(=O)N(CC(=O)Nc2ccccc2C(=O)NC2CC2)C1=O (centres undefined) | > 61 µg/mL
11 | O=C(Nc1cccnc1Cl)c1cc(-c2ccc(O)cc2)on1 | < 0.2 µg/mL
12 | COc1ccc(-c2csc(Nc3ccccn3)n2)cc1OC | 5.5 µg/mL (≈ 17.6 µM)
13 | COc1ccc(N2C(=O)c3ccccc3C2O)cc1 (centres undefined) | > 38.3 µg/mL
14 | COc1ccc(NC(=O)c2cc3ccccc3o2)cn1 | 3.8 µg/mL (≈ 14.2 µM)
15 | COCCNc1nc(-c2cc(C)c(C)cc2C)cs1.Cl | 35.4 µg/mL
16 | CCOc1nc2ccccc2cc1/C=C/C(=O)O | 13.1 µg/mL (≈ 53.9 µM)
17 | CN(C)/C(=N\S(=O)(=O)c1ccc(Br)cc1)c1ccccc1 | 50.2 µg/mL (≈ 137 µM)
18 | O=C(O)c1ccccc1NCc1cccnc1 | > 34.2 µg/mL
19 | CCN(Cc1ccccc1)C(=O)CS(=O)(=O)c1ccccc1 | > 47.6 µg/mL
20 | CC(C)CN(C(=O)CCNC(=O)c1ccc(Cl)cc1)C1CCS(=O)(=O)C1 (centres undefined) | > 60.1 µg/mL
21 | CCOc1ccc(Nc2nc3c(C)cccc3cc2C#N)cc1 | < 0.2 µg/mL
22 | COc1ccc(C(=O)NC(C(=O)NCC2CCCO2)C(C)C)cc1 (centres undefined) | > 50.2 µg/mL
23 | Cc1cccc(/N=C2/NC(=O)C(Cc3ccccc3)S2)n1 (centres undefined) | 0.3 µg/mL (≈ 1.01 µM)
24 | O=C(NCCCn1ccnc1)c1ccc(Cl)c(Cl)c1 | > 44.7 µg/mL

Row | SMILES | solubility kinetic
25 | OCCN(CC#CCC(O)(c1ccccc1)C1CCCC1)CCO (centres undefined) | > 49.7 µg/mL
26 | COc1ccc(C(=O)NCc2ccc3c(c2)cc(C)n3C)cc1OC | 4.7 µg/mL (≈ 13.9 µM)
27 | COc1ccccc1CC(=O)Nc1ccc(F)cc1F | > 41.6 µg/mL
28 | Cc1ccc(C(C)C)c(OCCn2ccnc2C)c1.O=C(O)C(=O)O | 46.7 µg/mL
29 | Cc1cc(C)nc(/N=c2/ssnc2Cl)c1 | 1.8 µg/mL (≈ 6.98 µM)
30 | CC(C)(C)c1csc(NC(=O)CSC2=NCCS2)n1 | 10.6 µg/mL (≈ 33.6 µM)
31 | Cc1ccc(C(=O)OCc2nc3ccsc3c(=O)[nH]2)o1 | > 43.5 µg/mL
32 | Cc1ccc(NC(=S)NCCC2=CCCCC2)cc1 | 0.6 µg/mL (≈ 2.19 µM)
33 | CC(C)CNC(=O)COC(=O)c1ccc(F)cc1Cl | > 43.2 µg/mL
34 | CC(C(=O)O)N1c2cccc3cccc(c23)S1(=O)=O (centres undefined) | > 41.6 µg/mL
35 | Cn1nc(C(=O)NCC(c2cccs2)N2CCOCC2)c2ccccc2c1=O (centres undefined) | > 59.8 µg/mL
36 | CN(C(=O)COc1ncnc2sccc12)c1ccccc1 | 39.4 µg/mL (≈ 132 µM)
37 | Cc1ccccc1C(=O)NC1CCCN(Cc2ccccc2F)C1 (centres undefined) | 43.2 µg/mL (≈ 132 µM)
38 | O=C(Nc1ccc(S(=O)(=O)N2CCOCC2)cc1)C1CC1 | > 46.6 µg/mL
39 | CCOc1ccc(CO/N=C/c2c(C)[nH]c(=O)[nH]c2=O)cc1 | 5.8 µg/mL (≈ 19.1 µM)
40 | O=C(Nc1ccc(S(=O)(=O)N2CCCCC2)cc1)C1CCCO1 (centres undefined) | 39.9 µg/mL (≈ 118 µM)
41 | S=C1NCN(CCc2ccccc2)CN1 | > 33.2 µg/mL
42 | COc1ccc(CC(=O)OCC(=O)NC2CCCCC2)cc1OC | > 50.3 µg/mL
43 | CCOc1ccccc1NS(=O)(=O)c1ccc2[nH]c(=O)ccc2c1 | 48.3 µg/mL (≈ 140 µM)
44 | COc1ccccc1CNC(=O)COC(=O)c1ccc(S(=O)(=O)N2CCCCC2)cc1 | 2.1 µg/mL (≈ 4.7 µM)
45 | CC(=O)c1sc2c(c1N)c(=O)[nH]c(=O)n2-c1ccccc1 | 8.5 µg/mL (≈ 28.2 µM)
46 | O=C(CSc1cccc[n+]1[O-])N1CCCCCC1 | 27 µg/mL (≈ 101 µM)
47 | S=C(NCc1cccs1)Nc1cccc2ccccc12 | 30.5 µg/mL (≈ 102 µM)
48 | Clc1c2c(nc3ccccc13)CCC2 | 4 µg/mL (≈ 19.6 µM)

Row | SMILES | solubility kinetic
49 | O=[N+]([O-])c1ccc(N2CCN(c3ccccc3O)CC2)cc1 | 0.5 µg/mL (≈ 1.67 µM)
50 | Cc1ccc(NC(=O)OCCNC(=O)c2ccncc2)cc1 | 44.4 µg/mL (≈ 148 µM)
51 | CC(O)CNCCCCOc1ccc(OCc2ccccc2)cc1 (centres undefined) | 40.7 µg/mL (≈ 124 µM)
52 | Cc1ccc(C(=O)O)cc1NCc1ccncc1 | > 36.3 µg/mL
53 | CN1C(=O)c2ccccc2N(C)C1c1ccc(F)cc1 (centres undefined) | 30.7 µg/mL (≈ 114 µM)
54 | O=C(Nc1ccccc1Br)c1cc[n+]([O-])cc1 | > 44 µg/mL
55 | O=C(O)CC1S/C(=N/N=C/c2ccccn2)NC1=O (centres undefined) | > 41.7 µg/mL
56 | O=C(c1ccccc1NS(=O)(=O)c1ccc(F)cc1F)N1CCCCC1 | > 57.1 µg/mL
57 | COc1cccc(NC(=O)c2ccccc2Br)c1 | > 45.9 µg/mL
58 | Cc1ccc(S(=O)(=O)N2CCCCC2)cc1NC(=O)C1CCC1 | 16.4 µg/mL (≈ 48.7 µM)
59 | Cc1cnc(C(=O)OCc2nc3ccsc3c(=O)[nH]2)cn1 | 45.3 µg/mL (≈ 150 µM)
60 | C#CCOc1nc2c(c(=O)n(C)c(=O)n2C)n1Cc1ccccc1 | 8.9 µg/mL (≈ 27.4 µM)
61 | CCCCN(CCCC)c1ncnc2nc[nH]c12 | 29.8 µg/mL (≈ 120 µM)
62 | CCCS(=O)(=O)Nc1cccc(-c2cn3c(n2)SCC3)c1 | > 48.5 µg/mL
63 | COc1ccc(S(=O)(=O)NC2CCc3ccccc32)cc1OC (centres undefined) | > 50 µg/mL
64 | COc1ccc(/C(N)=N/OC(=O)c2cccc([N+](=O)[O-])c2C)cc1 | 1.1 µg/mL (≈ 3.34 µM)
65 | COc1cccc(Nc2nc(C)nc3c2oc2ccccc23)c1 | 0.3 µg/mL (≈ 0.983 µM)
66 | CCOC(=O)C1=C(C)N(CC(C)C)C(=O)C1 | > 33.8 µg/mL
67 | O=[N+]([O-])c1cc(Cl)ccc1NCCc1ccccn1 | 28.7 µg/mL (≈ 103 µM)
68 | Cc1ccc(S(=O)(=O)N2CCOCC2)cc1NC(=O)COC(=O)/C=C/c1ccc(F)cc1 | 10.3 µg/mL (≈ 22.3 µM)
69 | CC1CCCCC1NC(=O)COc1ccccc1C#N (centres undefined) | > 40.9 µg/mL
70 | Oc1ccccc1CNc1nccs1 | > 30.9 µg/mL
71 | Cc1ccc(S(=O)(=O)CC(=O)Nc2ccccn2)cc1 | 42.3 µg/mL (≈ 146 µM)
72 | CCOC(=O)CCn1cnc2ccc([N+](=O)[O-])cc2c1=O | 25.2 µg/mL (≈ 86.5 µM)

Row | SMILES | solubility kinetic
73 | O=C(c1cccc(Cl)c1)N1CCn2c1nc1ccccc12 | 0.9 µg/mL (≈ 3.02 µM)
74 | COc1cc2c(cc1OC)C(C)N(S(=O)(=O)c1cccs1)CC2 (centres undefined) | 41.1 µg/mL (≈ 116 µM)
75 | CCC[C@@H]1C[C@@H](C(=O)N[C@@H]([C@H]2O[C@H](SC)[C@H](O)[C@@H](O)[C@@H]2O)[C@@H](C)O)N(C)C1.Cl | > 66.5 µg/mL
76 | CN(CC(=O)Nc1cccc(F)c1)C(=O)c1ccc(-c2ccc(Cl)cc2)o1 | 5.6 µg/mL (≈ 14.5 µM)
77 | Cc1cccnc1NC(=O)Cn1c(=O)oc2ccccc21 | 41.2 µg/mL (≈ 145 µM)
78 | COc1ccc(-n2c(C)c(C)c3c(NCCN(C)C)ncnc32)cc1 | > 50.9 µg/mL
79 | COC(=O)c1ccc(C2NC(=O)c3c(sc(C)c3C)N2)cc1 (centres undefined) | 14.5 µg/mL (≈ 45.8 µM)
80 | COc1cccc(C(=O)Nc2ccc3c(C)cc(=O)oc3c2)c1 | < 0.7 µg/mL
81 | O=C(CNC(=O)Cc1ccc(Cl)cc1)NCc1ccco1 | 26.4 µg/mL (≈ 86.1 µM)
82 | CC(NC(=O)c1ccco1)c1ccc(-n2ccnc2)cc1 (centres undefined) | > 42.2 µg/mL
83 | CC(=O)Cn1cnc2scc(-c3ccc(C)c(C)c3)c2c1=O | 43.7 µg/mL (≈ 140 µM)
84 | O=[N+]([O-])c1ccc(N=Cc2c(O)ccc3ccccc23)cc1 | 30.5 µg/mL (≈ 104 µM)
85 | CCC(C(=O)NCc1ccccc1OC)c1ccccc1 (centres undefined) | 32.6 µg/mL (≈ 115 µM)
86 | CCCc1nc2sc3c(=O)[nH]cnc3c2c2c1CCCC2 | 0.4 µg/mL (≈ 1.34 µM)
87 | O=c1c(Cc2ccc(Cl)cc2)c(O)ccn1Cc1cccs1 | 4.6 µg/mL (≈ 13.9 µM)
88 | Cc1ccc(C)c(NC(=S)NC23CN4CN(CN(C4)C2)C3)c1 | > 47.6 µg/mL
89 | CC1CCCC(C)N1C(=S)SCC(=O)O (centres undefined) | > 37.1 µg/mL
90 | COc1cc(C(=O)NCC(=O)N2CCN(S(=O)(=O)c3ccccc3C(F)(F)F)CC2)cc(OC)c1OC | > 81.8 µg/mL
91 | Cc1c(NC(=O)C(C)Oc2ccc(Br)cc2)c(=O)n(-c2ccccc2)n1C (centres undefined) | > 64.5 µg/mL
92 | COc1cccc(N=C(N)N=C(N)N)c1 | 25.6 µg/mL (≈ 124 µM)
93 | Cc1nn(Cc2cccc(C(=O)O)c2)c(C)c1[N+](=O)[O-] | > 41.3 µg/mL
94 | O=C(COC(=O)c1ccco1)NCCc1ccc(Cl)cc1 | > 46.2 µg/mL
95 | O=C1c2ccccc2C(=O)N1OS(=O)(=O)c1ccc(F)cc1 | > 48.2 µg/mL
96 | CC(=O)c1cn(CCOc2cc(C)ccc2C)c2ccccc12 | < 0.7 µg/mL

Row | SMILES | solubility kinetic
97 | CN(C)C(=O)c1cc(C(=O)c2ccc(C(F)(F)F)cc2)c[nH]1 | 1.6 µg/mL (≈ 5.16 µM)
98 | COc1ccc(C(=O)NCc2cc3ccccc3n2C)cc1 | 3.7 µg/mL (≈ 12.6 µM)
99 | Nc1ccc(C(=O)O)cc1 | > 20.6 µg/mL
100 | CN(C(=O)CCN1C(=O)c2ccccc2C1=O)c1ccccc1 | 36.5 µg/mL (≈ 118 µM)
101 | CCOc1ccc(NC(=O)COC(=O)c2ccc(S(=O)(=O)N3CCOCC3)cc2)cc1 | 25.9 µg/mL (≈ 57.7 µM)
102 | O=c1nc2n(c3cccc(Cl)c13)CCCCC2 | 31 µg/mL (≈ 125 µM)
103 | CC1(C)CC2CC(C)(CN2C(=O)COC(=O)c2cccc([N+](=O)[O-])c2)C1 (centres undefined) | > 54.1 µg/mL
104 | Cl.O=S1(=O)CCC(NC2CCCC2)C1 (centres undefined) | > 36 µg/mL
105 | CC1C(=O)Nc2ccccc2N1C(=O)c1ccc(F)cc1 (centres undefined) | > 42.6 µg/mL
106 | N#CC1(NC(=O)COc2cccnc2[N+](=O)[O-])CCCCC1 | > 45.6 µg/mL
107 | Cl.Fc1ccc(CNCc2ccc3c(c2)OCO3)cc1 | > 44.4 µg/mL
108 | FC(F)(F)c1ccc(CSc2ccccn2)cc1 | 1.2 µg/mL (≈ 4.46 µM)
109 | C[C@@H](C(=O)OCC(=O)c1ccccc1)N1C(=O)C2CCCCC2C1=O (some centres undefined) | > 51.5 µg/mL
110 | CCC(C(=O)NC(CC(=O)O)c1ccc(Cl)cc1)c1ccccc1 (centres undefined) | > 51.9 µg/mL
111 | COc1ccccc1CNS(=O)(=O)c1ccc(Br)s1 | 32.4 µg/mL (≈ 89.4 µM)
112 | CCCCn1c(N)c(N(CC)C(=O)CCNC(=O)c2ccc(Cl)cc2)c(=O)[nH]c1=O | > 65.4 µg/mL
113 | COc1cc(/C=C/C(=O)NCC2CCCCC2)cc(OC)c1OC | < 0.7 µg/mL
114 | CCC(=NCc1ccco1)c1c(O)n(C)c(=O)n(C)c1=O | > 43.7 µg/mL
115 | COc1ccccc1CNC(=O)CS(=O)(=O)c1ccccc1 | 44 µg/mL (≈ 138 µM)
116 | COC(=O)c1sc(NC(=O)/C=C/c2ccccc2Cl)nc1C | 1.5 µg/mL (≈ 4.45 µM)
117 | CNC(=S)Nc1ccc(N2CCCC2)c(S(=O)(=O)Nc2ccc(OC)cc2)c1 | 34.6 µg/mL (≈ 82.3 µM)
118 | CC1CCCN(CCC(=O)Nc2ccc(F)c(F)c2)C1 (centres undefined) | > 42.3 µg/mL
119 | O=C(CCS(=O)(=O)c1ccccc1Cl)NC1CCCCCC1 | > 51.6 µg/mL
